Measurements: patent US20250230193A1, “CYCLIC COMPOUND HAVING SELECTIVE KRAS INHIBITORY EFFECT ON HRAS AND NRAS” (CHUGAI SEIYAKU KABUSHIKI KAISHA, priority 2022, published 2025)
Where a SMILES comes first, the peptide text is derived from it. Bridges are numbered along the chain shown (N, C = ends). [ ]: non-standard residue; d: D form. The star is where a group is joined. hPhe(3-Cl-4-CF3) = N[C@@H](CCc1ccc(C(F)(F)F)c(Cl)c1)C(=O)O; NPrPhe(4-CF3) = CCCN[C@@H](Cc1ccc(C(F)(F)F)cc1)C(=O)O; NMeGly(cPent) = CN[C@H](C(=O)O)C1CCCC1; NMeI = CC[C@H](C)[C@H](NC)C(=O)O; NMeD = CN[C@@H](CC(=O)O)C(=O)O; Ac4c(3-oxa) = NC1(C(=O)O)COC1; NMeL = CN[C@@H](CC(C)C)C(=O)O; NMeAbu = CC[C@H](NC)C(=O)O; NMeS = CN[C@@H](CO)C(=O)O; Morpholide = C1CN(*)CCO1; NMeA = CN[C@@H](C)C(=O)O; Ac5c = NC1(C(=O)O)CCCC1; Ac4c = NC1(C(=O)O)CCC1; Sar = CNCC(=O)O

Legend:
[1] = target: GDP-bound NRAS wild-type protein (Homo sapiens, UniProt P01111); experiment: Binding to NRAS by surface plasmon resonance (SPR), Single Cycle Kinetics; conditions: KD ratio, GDP-bound NRAS wild-type vs GDP-bound KRAS wild-type, SPR
Chain of GDP-bound NRAS wild-type protein (P01111 whole entry): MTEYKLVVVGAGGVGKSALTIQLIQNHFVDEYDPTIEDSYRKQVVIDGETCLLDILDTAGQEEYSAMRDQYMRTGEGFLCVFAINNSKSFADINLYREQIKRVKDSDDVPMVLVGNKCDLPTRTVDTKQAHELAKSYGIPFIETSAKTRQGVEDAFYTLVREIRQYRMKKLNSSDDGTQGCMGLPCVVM

[2] = target: GDP-bound HRAS wild-type protein (Homo sapiens, UniProt P01112); experiment: Binding to HRAS by surface plasmon resonance (SPR), Single Cycle Kinetics; conditions: KD ratio, GDP-bound HRAS wild-type vs GDP-bound KRAS wild-type, SPR
Chain of GDP-bound HRAS wild-type protein (P01112 whole entry): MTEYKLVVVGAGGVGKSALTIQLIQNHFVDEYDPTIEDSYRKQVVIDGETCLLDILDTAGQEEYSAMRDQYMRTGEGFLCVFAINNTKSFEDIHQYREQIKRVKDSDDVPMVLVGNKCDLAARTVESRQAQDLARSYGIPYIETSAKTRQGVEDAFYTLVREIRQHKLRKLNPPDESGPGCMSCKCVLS

| SMILES | NRAS/KRAS (ratio of KD value for NRAS to KD value for KRAS) [1] | HRAS/KRAS (ratio of KD value for HRAS to KD value for KRAS) [2] |
| --- | --- | --- |
| CC[C@H](C)[C@@H]1NC(=O)[C@H](CC(F)F)N(C)C(=O)C[C@@H](C(=O)N(C)CC)N(C)C(=O)[C@H](C2CCCC2)N(C)C(=O)C2(CC(C)(C)C2)NC(=O)[C@@H]2C[C@H](C)CN2C(=O)[C@H](CCc2ccc(C(F)(F)F)c(Cl)c2)NC(=O)CN(C)C(=O)[C@H](Cc2ccc(C)cc2)N2CC/C=C\C[C@@H](C2=O)N(C)C(=O)CN(C)C1=O [PP1911] | A (a compound having 10 or more and less than 20 is denoted as A) | A (a compound having 10 or more and less than 20 is denoted as A) |
| CCO[C@@H]1C[C@H]2C(=O)NC3(CC(C)(C)C3)C(=O)N(CC)[C@@H](C3CCCC3)C(=O)N(C)[C@H](C(=O)N(C)C)CC(=O)N(C)[C@@H](CC)C(=O)N[C@@H]([C@@H](C)CC)C(=O)N(C)CC(=O)N(C)[C@H]3C/C=C\CCN(C3=O)[C@@H](Cc3ccc(C(F)(F)F)cc3)C(=O)N(C)CC(=O)N[C@@H](CCc3cc(F)c(C(F)(F)F)c(F)c3)C(=O)N2C1 [PP1913] | A (a compound having 10 or more and less than 20 is denoted as A) | A (a compound having 10 or more and less than 20 is denoted as A) |
| CCO[C@@H]1C[C@H]2C(=O)NC3(CC(C)(C)C3)C(=O)N(C)[C@@H](C3CCCC3)C(=O)N(C)[C@H](C(=O)N(C)C)CC(=O)N3CCCCC[C@H]3C(=O)N[C@@H]([C@@H](C)CC)C(=O)N(C)CC(=O)N(C)[C@H]3C/C=C\CCN(C3=O)[C@@H](Cc3ccc(C(F)(F)F)cc3)C(=O)N(C)CC(=O)N[C@@H](CCc3cc(F)c(C(F)(F)F)c(F)c3)C(=O)N2C1 [PP1915] | A (a compound having 10 or more and less than 20 is denoted as A) | A (a compound having 10 or more and less than 20 is denoted as A) |
| CCCN1C(=O)CN(C)C(=O)CN(C)C(=O)[C@H]([C@@H](C)CC)NC(=O)[C@H](CC(C)C)N(C)C(=O)C[C@@H](C(=O)N2CCOCC2)N(C)C(=O)[C@H](C2CCCC2)N(C)C(=O)C2(CCC2)NC(=O)[C@H](C)N(C)C(=O)[C@H](CCc2ccc(C(F)(F)F)c(Cl)c2)NC(=O)CN(C)C(=O)[C@@H]1Cc1ccc(C(F)(F)F)cc1 [PP1916] ([NMeL]I[Sar][Sar][NPrPhe(4-CF3)][Sar][hPhe(3-Cl-4-CF3)][NMeA][Ac4c][NMeGly(cPent)][NMeD]-Morpholide; lactam N-11) | B (a compound having 3 or more and less than 10 is denoted as B) | C (A compound having a KD ratio of 0.1 or more and less than 3 is denoted as C) |
| CCCN(C)C(=O)[C@@H]1CC(=O)N(C)[C@@H](CC(C)C)C(=O)N[C@@H]([C@@H](C)OC)C(=O)N(C)CC(=O)N(C)[C@H]2C/C=C\CCN(C2=O)[C@@H](Cc2ccc(C(F)(F)F)cc2)C(=O)N(C)CC(=O)N[C@@H](CCc2cc(F)c(C(F)(F)F)c(F)c2)C(=O)N2C[C@H](OCC)C[C@H]2C(=O)NC2(CC(C)(C)C2)C(=O)N(C)[C@@H](C2CCCC2)C(=O)N1C [PP1917] | A (a compound having 10 or more and less than 20 is denoted as A) | A (a compound having 10 or more and less than 20 is denoted as A) |
| CCCN1C(=O)CN(C)C(=O)CN(C)C(=O)[C@H]([C@@H](C)CC)NC(=O)[C@H](CC(C)C)N(C)C(=O)C[C@@H](C(=O)N2CCOCC2)N(C)C(=O)[C@H](C2CCCC2)N(C)C(=O)C2(CCC2)NC(=O)[C@H](CC)N(C)C(=O)[C@H](CCc2ccc(C(F)(F)F)c(Cl)c2)NC(=O)CN(C)C(=O)[C@@H]1Cc1ccc(C(F)(F)F)cc1 [PP1918] ([NMeL]I[Sar][Sar][NPrPhe(4-CF3)][Sar][hPhe(3-Cl-4-CF3)][NMeAbu][Ac4c][NMeGly(cPent)][NMeD]-Morpholide; lactam N-11) | B (a compound having 3 or more and less than 10 is denoted as B) | C (A compound having a KD ratio of 0.1 or more and less than 3 is denoted as C) |
| CCO[C@@H]1C[C@H]2C(=O)NC3(CC(C)(C)C3)C(=O)N(C)[C@@H](C3CCCC3)C(=O)N(C)[C@H](C(=O)N(C)CC)CC(=O)N(C)[C@@H](CC(C)C)C(=O)N[C@@H]([C@@H](C)OCC)C(=O)N(C)CC(=O)N(C)[C@H]3C/C=C\CCN(C3=O)[C@@H](Cc3ccc(C(F)(F)F)cc3)C(=O)N(C)CC(=O)N[C@@H](CCc3cc(F)c(C(F)(F)F)c(F)c3)C(=O)N2C1 [PP1919] | A (a compound having 10 or more and less than 20 is denoted as A) | A (a compound having 10 or more and less than 20 is denoted as A) |
| CCCN1C(=O)CN(C)C(=O)CN(C)C(=O)[C@H]([C@@H](C)CC)NC(=O)[C@H](CC(C)C)N(C)C(=O)C[C@@H](C(=O)N2CCOCC2)N(C)C(=O)[C@H](C2CCCC2)N(C)C(=O)C2(CCCC2)NC(=O)[C@H](COC)N(C)C(=O)[C@H](CCc2ccc(C(F)(F)F)c(Cl)c2)NC(=O)CN(C)C(=O)[C@@H]1Cc1ccc(C(F)(F)F)cc1 [PP1920] ([NMeL]I[Sar][Sar][NPrPhe(4-CF3)][Sar][hPhe(3-Cl-4-CF3)][NMeS](Me)[Ac5c][NMeGly(cPent)][NMeD]-Morpholide; lactam N-11) | B (a compound having 3 or more and less than 10 is denoted as B) | C (A compound having a KD ratio of 0.1 or more and less than 3 is denoted as C) |
| CCCO[C@H](C)[C@@H]1NC(=O)[C@H](CC(C)C)N(C)C(=O)C[C@@H](C(=O)N(C)C)N(C)C(=O)[C@H](C2CCCC2)N(C)C(=O)C2(CC(C)(C)C2)NC(=O)[C@@H]2C[C@@H](OCC)CN2C(=O)[C@H](CCc2cc(F)c(C(F)(F)F)c(F)c2)NC(=O)CN(C)C(=O)[C@H](Cc2ccc(C(F)(F)F)cc2)N2CC/C=C\C[C@@H](C2=O)N(C)C(=O)CN(C)C1=O [PP1921] | A (a compound having 10 or more and less than 20 is denoted as A) | A (a compound having 10 or more and less than 20 is denoted as A) |
| CCCN1C(=O)CN(C)C(=O)CN(C)C(=O)[C@H]([C@@H](C)CC)NC(=O)[C@H](CC(C)C)N(C)C(=O)C[C@@H](C(=O)N2CCOCC2)N(C)C(=O)[C@H](C2CCCC2)N(C)C(=O)C2(COC2)NC(=O)[C@@H]2CCCN2C(=O)[C@H](CCc2ccc(C(F)(F)F)c(Cl)c2)NC(=O)CN(C)C(=O)[C@@H]1Cc1ccc(C(F)(F)F)cc1 [PP1922] ([NMeL]I[Sar][Sar][NPrPhe(4-CF3)][Sar][hPhe(3-Cl-4-CF3)]P[Ac4c(3-oxa)][NMeGly(cPent)][NMeD]-Morpholide; lactam N-11) | B (a compound having 3 or more and less than 10 is denoted as B) | C (A compound having a KD ratio of 0.1 or more and less than 3 is denoted as C) |
| CCCN(C)C(=O)[C@@H]1CC(=O)N(C)[C@@H](CC(C)C)C(=O)N[C@@H](C2CCOCC2)C(=O)N(C)CC(=O)N(C)[C@H]2C/C=C\CCN(C2=O)[C@@H](Cc2ccc(C(F)(F)F)cc2)C(=O)N(C)CC(=O)N[C@@H](CCc2cc(F)c(C(F)(F)F)c(F)c2)C(=O)N2C[C@H](OCC)C[C@H]2C(=O)NC2(CC(C)(C)C2)C(=O)N(C)[C@@H](C2CCCC2)C(=O)N1C [PP1923] | A (a compound having 10 or more and less than 20 is denoted as A) | A (a compound having 10 or more and less than 20 is denoted as A) |
| CCC[C@H]1C(=O)N[C@@H]([C@@H](C)CC)C(=O)N2CC[C@H]2C(=O)N(C)[C@H]2C/C=C\CCN(C2=O)[C@@H](Cc2ccc(C(F)(F)F)cc2)C(=O)N(C)CC(=O)N[C@@H](CCc2cc(F)c(C(F)(F)F)c(F)c2)C(=O)N2C[C@H](OCC)C[C@H]2C(=O)NC2(CC(C)(C)C2)C(=O)N(C)[C@@H](C2CCCC2)C(=O)N(C)[C@H](C(=O)N(C)C)CC(=O)N1C [PP1925] | A (a compound having 10 or more and less than 20 is denoted as A) | A (a compound having 10 or more and less than 20 is denoted as A) |
| CCCN1C(=O)CN(C)C(=O)CN(C)C(=O)[C@H]([C@@H](C)CC)NC(=O)[C@H](CC(C)C)N(C)C(=O)C[C@@H](C(=O)N2CCOCC2)N(C)C(=O)[C@H]([C@@H](C)CC)N(C)C(=O)C2(CCCC2)NC(=O)[C@@H]2CCCN2C(=O)[C@H](CCc2ccc(C(F)(F)F)c(Cl)c2)NC(=O)CN(C)C(=O)[C@@H]1Cc1ccc(C(F)(F)F)cc1 [PP1926] ([NMeL]I[Sar][Sar][NPrPhe(4-CF3)][Sar][hPhe(3-Cl-4-CF3)]P[Ac5c][NMeI][NMeD]-Morpholide; lactam N-11) | B (a compound having 3 or more and less than 10 is denoted as B) | B (a compound having 3 or more and less than 10 is denoted as B) |
| CCC[C@H]1C(=O)N[C@@H]([C@@H](C)CC)C(=O)N[C@@H](C)C(=O)N(C)[C@H]2C/C=C\CCN(C2=O)[C@@H](Cc2ccc(C(F)(F)F)cc2)C(=O)N(C)CC(=O)N[C@@H](CCc2cc(F)c(C(F)(F)F)c(F)c2)C(=O)N2C[C@H](OCC)C[C@H]2C(=O)NC2(CC(C)(C)C2)C(=O)N(C)[C@@H](C2CCCC2)C(=O)N(C)[C@H](C(=O)N(C)C)CC(=O)N1C [PP1927] | A (a compound having 10 or more and less than 20 is denoted as A) | A (a compound having 10 or more and less than 20 is denoted as A) |
